Assay results published in patent publication US20250351829A1, “HERBICIDAL COMBINATIONS AND A METHOD FOR CONTROLLING UNDESIRED VEGETATION” (UPL Mauritius Limited, priority 2022, published 2025).

Tested on: Bidens pilosa
Experiment: Post-emergence herbicidal activity, weed control efficacy trials
Type: in vivo
Settings: 7 DAA
Protocol: Methodology: Trials were conducted to evaluate the efficacy of the combinations comprising L-glufosinate ammonium and additional herbicides on Bidens pilosa weed.
The soil used was sandy clay loam-sand: 68.0%; silt: 8.0%; clay: 24.0%.
All treatments were in 3 replications per treatment with a spray volume of about 150 L/ha.
Efficacy Evaluation: The expected efficacy of the combination comprising L-glufosinate ammonium and additional herbicides was calculated using the well-established Colby method.
In the Colby method, the expected (or predicted) response of a combination of herbicides is calculated by taking the product of the observed response for each individual component of the combination when applied alone, divided by 100, and subtracting this value from the sum of the observed response for each component when applied alone. An unexpected enhancement in efficacy of the combination is then determined by comparing the observed response of the combination to the expected (or predicted) response as calculated from the observed response of each individual component alone. If the observed response of the combination is greater than the expected (or predicted) response, or stated conversely, if the difference between the observed and expected response is greater than zero, then the combination is said to be synergistic or unexpectedly effective (Colby, S. R., Weeds, 1967(15), p. 20-22). The Colby method requires only a single dose of each herbicide applied alone and the mixture of both doses. The formula used to calculate the expected efficacy (EE) which was compared with the observed efficacy (OE) to determine the efficacy of the present disclosure is explained hereinbelow: […]

CCc1cccc(C)c1N(COC(C)C)C(=O)CCl [Propisochlor]
Observed efficacy (%) of Propisochlor (540 g a.i./ha): 5%

Cc1ccc2c(c1)[C@H](Nc1nc(N)nc(C(C)F)n1)[C@@H](C)C2 (stereo partly drawn) [Indaziflam]
Observed efficacy (%) of Indaziflam (50 g a.i./ha): 90%

Cn1nc(C(F)(F)F)c(CS(=O)(=O)C2=NOC(C)(C)C2)c1OC(F)F [pyroxasulfone, Pyroxasulfone]
Observed efficacy (%) of pyroxasulfone (75 g a.i./ha): 5%

CP(=O)(O)CC[C@H](N)C(=O)O.N [L-glufosinate ammonium]
Observed efficacy (%) of L-glufosinate ammonium (150 g a.i./ha) (Example 1): 95%
Observed efficacy (%) of L-glufosinate ammonium (150 g a.i./ha) (Example 2): 95%
Observed efficacy (%) of L-glufosinate ammonium (150 g a.i./ha) (Example 3): 95%
